Laboratory results published in US10196391B2 (Hoffmann-La Roche Inc., priority 2014, dated 2019).

What follows are molecules tested on HBsAg (assay: HBsAg assay (CLIA) in HepG2.2.15 cells). Conditions: HepG2.2.15 cells, secreted HBsAg, CLIA; read-out: IC50 (HBsAg assay).
Assay type: cell-based, HBV
Experimental: HepG2.2.15 cells (Acs et al. Proc Natl Acad Sci USA, 84, (1987), 4641-4), a constitutively HBV-expressing cell line were cultured in DMEM+Glutamax-I medium (Invitrogen, Carlsbad, Calif., USA), supplemented with 10% fetal bovine serum (Invitrogen) and G418 (Invitrogen) at a final concentration of 200 mg/L and maintained in 5% CO2 at 37° C.
HepG2.2.15 cells were seeded in duplicate into white, 96-well plates at 1.5×10^4 cells/well. The cells were treated with a three-fold serial dilution series of the compounds in DMSO. The final DMSO concentration in all wells was 1% and DMSO was used as no drug control.
The HBsAg chemiluminescence immunoassay (CLIA) kit (Autobio Diagnostics Co., Zhengzhou, China, Catalog number: CL0310-2) was used to measure the levels of secreted HBV antigens semi-quantitatively. For the detection 50 μL/well culture supernatant was used and HBsAg was quantified using HBsAg chemiluminescence immunoassay (CLIA) kit (Autobio Diagnostics Co., Zhengzhou, China, Catalog number: CL0310-2), 50 μL of the supernatant was transferred to the CLIA assay plate and 50 μL of enzyme conjugate reagent was added into each well. The plates were sealed and gently agitated for 1 hour at room temperature. The supernatant-enzyme-mixture was discarded and wells were washed 6 times with 300 μL of PBS. The residual liquid was removed by plating the CLIA plate […] on absorbent tissue paper. 25 μL of substrates A and B were added to each well. Luminance was measured using a luminometer (Mithras LB 940 Multimode Microplate Reader) after 10 minutes incubation. Dose-response curves were generated and the IC50 value was extrapolated by using the E-WorkBook Suite (ID Business Solutions Ltd., Guildford, UK). The IC50 was defined as the compound concentration (or conditioned media log dilution) at which HBsAg secretion was reduced by 50% compared to the no drug control.
The compounds according to formula I were tested for their capacity to inhibit HBsAg as described herein.

Row | Molecule | IC50
1 | 2,3-difluoro-5-[2-(2-pyridyl)-7,8-dihydro-5H-pyrido[4,3-d]pyrimidin-6-yl]phenol [Example 18] | 22 µM

Same assay, conditions: Hepatitis B virus, HepG2.2.15, read-out: IC50 (HBsAg assay)

Row | Molecule | IC50
2 | CS(=O)(=O)c1ccc(N2CCc3nc(-c4ccccn4)ncc3C2)cc1 [Example 1, 6-(4-methylsulfonylphenyl)-2-(2-pyridyl)-7,8-dihydro-5H-pyrido[4,3-d]pyrimidine] | 4.24 µM
3 | CS(=O)(=O)c1ccc(N2CCc3nc(-c4ccc(F)cn4)ncc3C2)cc1 [Example 2, 2-(5-fluoro-2-pyridyl)-6-(4-methylsulfonylphenyl)-7,8-dihydro-5H-pyrido[4,3-d]pyrimidine] | 10.2 µM
4 | Cc1ccc(-c2ncc3c(n2)CCN(c2ccc(S(C)(=O)=O)cc2)C3)nc1 [Example 3, 2-(5-methyl-2-pyridyl)-6-(4-methylsulfonylphenyl)-7,8-dihydro-5H-pyrido[4,3-d]pyrimidine] | 9.22 µM
5 | Cc1cccnc1-c1ncc2c(n1)CCN(c1ccc(S(C)(=O)=O)cc1)C2 [Example 4, 2-(3-methyl-2-pyridyl)-6-(4-methylsulfonylphenyl)-7,8-dihydro-5H-pyrido[4,3-d]pyrimidine] | 17.8 µM
6 | COc1ccc(-c2ncc3c(n2)CCN(c2ccc(S(C)(=O)=O)cc2)C3)nc1 [Example 5, 2-(5-methoxy-2-pyridyl)-6-(4-methylsulfonylphenyl)-7,8-dihydro-5H-pyrido[4,3-d]pyrimidine] | 42.1 µM
7 | CS(=O)(=O)c1ccc(N2CCc3nc(-c4ccc(Cl)cn4)ncc3C2)cc1 [Example 6, 2-(5-chloro-2-pyridyl)-6-(4-methylsulfonylphenyl)-7,8-dihydro-5H-pyrido[4,3-d]pyrimidine] | 18.8 µM
8 | CCC1CN(c2ccc(S(C)(=O)=O)cc2)Cc2cnc(-c3ccccn3)nc21 (stereo not drawn) [Example 7, 8-ethyl-6-(4-methylsulfonylphenyl)-2-(2-pyridyl)-7,8-dihydro-5H-pyrido[4,3-d]pyrimidine] | 5.17 µM
9 | CNS(=O)(=O)c1ccc(N2CCc3nc(-c4ccccn4)ncc3C2)cc1 [Example 8, N-methyl-4-[2-(2-pyridyl)-7,8-dihydro-5H-pyrido[4,3-d]pyrimidin-6-yl]benzenesulfonamide] | 4.18 µM
10 | CN(C)S(=O)(=O)c1ccc(N2CCc3nc(-c4ccccn4)ncc3C2)cc1 [Example 9, N,N-dimethyl-4-[2-(2-pyridyl)-7,8-dihydro-5H-pyrido[4,3-d]pyrimidin-6-yl]benzenesulfonamide] | 16.9 µM
11 | Fc1ccc(N2CCc3nc(-c4ccccn4)ncc3C2)cc1F [Example 10, 6-(3,4-difluorophenyl)-2-(2-pyridyl)-7,8-dihydro-5H-pyrido[4,3-d]pyrimidine] | 2.69 µM
12 | CS(=O)(=O)c1cccc(N2CCc3nc(-c4ccccn4)ncc3C2)c1 [Example 11, 6-(3-methylsulfonylphenyl)-2-(2-pyridyl)-7,8-dihydro-5H-pyrido[4,3-d]pyrimidine] | 17.4 µM
13 | O=S(=O)(c1ccc(N2CCc3nc(-c4ccccn4)ncc3C2)cc1)C(F)(F)F [Example 12, 2-(2-pyridyl)-6-[4-(trifluoromethylsulfonyl)phenyl]-7,8-dihydro-5H-pyrido[4,3-d]pyrimidine] | 13.3 µM
14 | Fc1cc(F)cc(N2CCc3nc(-c4ccccn4)ncc3C2)c1 [Example 13, 6-(3,5-difluorophenyl)-2-(2-pyridyl)-7,8-dihydro-5H-pyrido[4,3-d]pyrimidine] | 1.04 µM
15 | Fc1ccc(N2CCc3nc(-c4ccccn4)ncc3C2)c(F)c1 [Example 14, 6-(2,4-difluorophenyl)-2-(2-pyridyl)-7,8-dihydro-5H-pyrido[4,3-d]pyrimidine] | 9.51 µM
16 | COC(=O)c1ccc(N2CCc3nc(-c4ccccn4)ncc3C2)cc1F [Example 15, methyl 2-fluoro-4-[2-(2-pyridyl)-7,8-dihydro-5H-pyrido[4,3-d]pyrimidin-6-yl]benzoate] | 9.23 µM
17 | COC(=O)c1cc(Br)ccc1N1CCc2nc(-c3ccccn3)ncc2C1 [Example 16, methyl 5-bromo-2-[2-(2-pyridyl)-7,8-dihydro-5H-pyrido[4,3-d]pyrimidin-6-yl]benzoate] | 13.7 µM
18 | COc1cc(N2CCc3nc(-c4ccccn4)ncc3C2)cc(F)c1F [Example 17, 6-(3,4-difluoro-5-methoxy-phenyl)-2-(2-pyridyl)-7,8-dihydro-5H-pyrido[4,3-d]pyrimidine] | 0.154 µM
19 | COCCCOc1cc(N2CCc3nc(-c4ccccn4)ncc3C2)cc(F)c1F [Example 19, 6-[3,4-difluoro-5-(3-methoxypropoxy)phenyl]-2-(2-pyridyl)-7,8-dihydro-5H-pyrido[4,3-d]pyrimidine] | 0.461 µM
20 | Fc1cc(N2CCc3nc(-c4ccccn4)ncc3C2)cc(OCc2ccccc2)c1F [Example 20, 6-(3-benzyloxy-4,5-difluoro-phenyl)-2-(2-pyridyl)-7,8-dihydro-5H-pyrido[4,3-d]pyrimidine] | 2.84 µM
21 | CCOc1cc(N2CCc3nc(-c4ccccn4)ncc3C2)cc(F)c1F [Example 21, 6-(3-ethoxy-4,5-difluoro-phenyl)-2-(2-pyridyl)-7,8-dihydro-5H-pyrido[4,3-d]pyrimidine] | 0.321 µM
22 | CCCOc1cc(N2CCc3nc(-c4ccccn4)ncc3C2)cc(F)c1F [Example 22, 6-(3,4-difluoro-5-propoxy-phenyl)-2-(2-pyridyl)-7,8-dihydro-5H-pyrido[4,3-d]pyrimidine] | 0.75 µM
23 | COCCOc1cc(N2CCc3nc(-c4ccccn4)ncc3C2)cc(F)c1F [Example 23, 6-[3,4-difluoro-5-(2-methoxyethoxy)phenyl]-2-(2-pyridyl)-7,8-dihydro-5H-pyrido[4,3-d]pyrimidine] | 0.549 µM
24 | COc1ccnc(-c2ncc3c(n2)CCN(c2cc(F)c(F)c(OC)c2)C3)c1 [Example 24, 6-(3,4-difluoro-5-methoxy-phenyl)-2-(4-methoxy-2-pyridyl)-7,8-dihydro-5H-pyrido[4,3-d]pyrimidine] | 1.86 µM
25 | COc1cccc(-c2ncc3c(n2)CCN(c2cc(F)c(F)c(OC)c2)C3)n1 [Example 25, 6-(3,4-difluoro-5-methoxy-phenyl)-2-(6-methoxy-2-pyridyl)-7,8-dihydro-5H-pyrido[4,3-d]pyrimidine] | 16 µM
26 | COc1cc(N2CCc3nc(-c4ncccn4)ncc3C2)cc(F)c1F [Example 26, 6-(3,4-difluoro-5-methoxy-phenyl)-2-pyrimidin-2-yl-7,8-dihydro-5H-pyrido[4,3-d]pyrimidine] | 0.061 µM
27 | COc1cc(F)c(F)cc1N1CCc2nc(-c3ccccn3)ncc2C1 [Example 27, 6-(4,5-difluoro-2-methoxy-phenyl)-2-(2-pyridyl)-7,8-dihydro-5H-pyrido[4,3-d]pyrimidine] | 3.16 µM
28 | COc1cc(N2CCc3nc(-c4cnccn4)ncc3C2)cc(F)c1F [Example 28, 6-(3,4-difluoro-5-methoxy-phenyl)-2-pyrazin-2-yl-7,8-dihydro-5H-pyrido[4,3-d]pyrimidine] | 0.455 µM
29 | COc1cc(N2CCc3nc(-c4ccncn4)ncc3C2)cc(F)c1F [Example 29, 6-(3,4-difluoro-5-methoxy-phenyl)-2-pyrimidin-4-yl-7,8-dihydro-5H-pyrido[4,3-d]pyrimidine] | 4.16 µM
30 | COc1c(N2CCc3nc(-c4ncccn4)ncc3C2)ccc(F)c1F [Example 30, 6-(3,4-difluoro-2-methoxy-phenyl)-2-pyrimidin-2-yl-7,8-dihydro-5H-pyrido[4,3-d]pyrimidine] | 9.49 µM
